Measured values published in patent US7419780B2, “Methods and assays for screening protein targets” (The Trustees of Columbia University in the City of New York, priority 2000, dated 2008).

What was measured:
Format in all cases: cell-based, S. cerevisiae
Conditions in all cases: 1 uM small molecule, difference to activity without small molecule, average of two trials
[1] = target: T1, LexA (GSG)2eDHFR / B42 (GSG)rGR2 (UniProt P06536+P0ABQ4, C656G/F620S); experiment: β-galactosidase activity assay, strain V501Y
T1 construct: rat Glucocorticoid Receptor (aa 524-795) with point mutations; expressed in transfected cells; host or cells: S. cerevisiae FY250
T1 sequence (P0ABQ4 1-159): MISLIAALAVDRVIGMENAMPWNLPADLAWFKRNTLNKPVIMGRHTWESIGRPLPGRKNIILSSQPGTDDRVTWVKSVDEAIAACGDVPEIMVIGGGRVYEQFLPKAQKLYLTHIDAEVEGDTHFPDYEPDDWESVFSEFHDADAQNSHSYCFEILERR
T1 sequence (P06536 524-795 F620S/C656G limits assumed): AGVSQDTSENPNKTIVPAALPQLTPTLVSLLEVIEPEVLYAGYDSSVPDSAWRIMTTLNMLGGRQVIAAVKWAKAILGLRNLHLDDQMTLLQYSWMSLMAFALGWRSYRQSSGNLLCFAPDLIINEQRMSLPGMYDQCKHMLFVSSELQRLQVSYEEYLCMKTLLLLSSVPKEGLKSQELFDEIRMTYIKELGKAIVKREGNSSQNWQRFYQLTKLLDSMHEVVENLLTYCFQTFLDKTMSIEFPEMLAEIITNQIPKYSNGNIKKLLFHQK
From the text: (§1) Table III explains the components of each strain. Each strain was constructed from the parent yeast strain FY250 and also contains the pMW106 plasmid, which has the LacZ reporter gene that is turned on only in when the LexA DNA binding domain and the B42 activation are brought in tot he vicinity of each other. We use several different strains because we use DHFR from two different species, mDHFR is from murine, while eDHFR is from E. coli. We are asl oable to switch the small moleculebinding domains. For example, the strain containing LexA-eDHFR with B42-rGH2 is a different strain and behaves differently from the strain containing LexA-rGR2 with B42-eDHFR. We also put in short 6 amino acid linkers between the two domains of our protein chimeras and thus these are different strain as well.
(§2) The results in Table IV are averages of two separate trials. Each strain was examined with small molecules and without small molecules. The absolute activity is given as the β-galactisidase activity […]. The average β-galactosidse activity for a strain without small molecule (i.e. the negative control) was about 100 β-galactosidase units.

[2] = target: T2, LexA eDHFR / B42 (GSG)rGR2 (UniProt P06536+P0ABQ4, C656G/F620S); experiment: β-galactosidase activity assay, strain V494Y
T2 construct: rat Glucocorticoid Receptor (aa 524-795) with point mutations; expressed in transfected cells; host or cells: S. cerevisiae FY250
T2 sequence (P0ABQ4 1-159): T1 sequence (P0ABQ4 1-159)
T2 sequence (P06536 524-795 F620S/C656G limits assumed): T1 sequence (P06536 524-795 F620S/C656G limits assumed)
From the text: as §1, §2

[3] = target: T3, LexA (GSG)2rGR2 / B42 mDHFR (UniProt P00375+P06536, C656G/F620S); experiment: β-galactosidase activity assay, strain V508Y
T3 construct: expressed in transfected cells; host or cells: S. cerevisiae FY250 with pMW106 lacZ reporter
T3 sequence (P06536 524-795 F620S/C656G limits assumed): T1 sequence (P06536 524-795 F620S/C656G limits assumed)
T3 sequence (P00375 1-187): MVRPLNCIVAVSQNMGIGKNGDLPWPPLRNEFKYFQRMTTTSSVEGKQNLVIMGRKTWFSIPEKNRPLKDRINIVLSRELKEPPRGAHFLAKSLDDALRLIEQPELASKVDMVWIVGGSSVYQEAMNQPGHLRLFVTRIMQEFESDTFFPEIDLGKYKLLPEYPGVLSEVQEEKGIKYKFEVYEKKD
From the text: as §1, §2

[4] = target: T4, LexA rGR2 / B42 (GSG)2eDHFR (UniProt P06536+P0ABQ4, C656G/F620S); experiment: β-galactosidase activity assay, strain V509Y
T4 construct: expressed in transfected cells; host or cells: S. cerevisiae FY250 with pMW106 lacZ reporter
T4 sequence (P06536 524-795 F620S/C656G limits assumed): T1 sequence (P06536 524-795 F620S/C656G limits assumed)
T4 sequence (P0ABQ4 1-159): T1 sequence (P0ABQ4 1-159)
From the text: as §1, §2

[5] = target: T5, LexA (GSG)2mDHFR / B42 gly6rGR2 (UniProt P00375+P06536, C656G/F620S); experiment: β-galactosidase activity assay, strain V503Y
T5 construct: expressed in transfected cells; host or cells: S. cerevisiae FY250 with pMW106 lacZ reporter
T5 sequence (P00375 1-187): T3 sequence (P00375 1-187)
T5 sequence (P06536 524-795 F620S/C656G limits assumed): T1 sequence (P06536 524-795 F620S/C656G limits assumed)
From the text: as §1, §2

[6] = target: T6, LexA (GSG)2eDHFR / B42 rGR2 (UniProt P06536+P0ABQ4, C656G/F620S); experiment: β-galactosidase activity assay, strain V498Y
T6 construct: rat Glucocorticoid Receptor (aa 524-795) with point mutations; expressed in transfected cells; host or cells: S. cerevisiae FY250
T6 sequence (P0ABQ4 1-159): T1 sequence (P0ABQ4 1-159)
T6 sequence (P06536 524-795 F620S/C656G limits assumed): T1 sequence (P06536 524-795 F620S/C656G limits assumed)
From the text: as §1, §2

[7] = target: T7, LexA rGR2 / B42 (GSG)2mDHFR (UniProt P00375+P06536, C656G/F620S); experiment: β-galactosidase activity assay, strain V511Y
T7 construct: expressed in transfected cells; host or cells: S. cerevisiae FY250 with pMW106 lacZ reporter
T7 sequence (P06536 524-795 F620S/C656G limits assumed): T1 sequence (P06536 524-795 F620S/C656G limits assumed)
T7 sequence (P00375 1-187): T3 sequence (P00375 1-187)
From the text: as §1, §2

[8] = target: T8, LexA (GSG)2eDHFR / B42 gly6rGR2 (UniProt P06536+P0ABQ4, C656G/F620S); experiment: β-galactosidase activity assay, strain V499Y
T8 construct: rat Glucocorticoid Receptor (aa 524-795) with point mutations; expressed in transfected cells; host or cells: S. cerevisiae FY250
T8 sequence (P0ABQ4 1-159): T1 sequence (P0ABQ4 1-159)
T8 sequence (P06536 524-795 F620S/C656G limits assumed): T1 sequence (P06536 524-795 F620S/C656G limits assumed)
From the text: as §1, §2

[9] = target: T9, LexA mDHFR / B42 gly6rGR2 (UniProt P00375+P06536, C656G/F620S); experiment: β-galactosidase activity assay, strain V496Y
T9 construct: rat Glucocorticoid Receptor (aa 524-795) with point mutations; expressed in transfected cells; host or cells: S. cerevisiae FY250
T9 sequence (P00375 1-187): T3 sequence (P00375 1-187)
T9 sequence (P06536 524-795 F620S/C656G limits assumed): T1 sequence (P06536 524-795 F620S/C656G limits assumed)
From the text: as §1, §2

LexA rGR2 / B42 mDHFR = target: T10, LexA rGR2 / B42 mDHFR (UniProt P00375+P06536, C656G/F620S); experiment: β-galactosidase activity assay, strain V507Y
T10 construct: rat Glucocorticoid Receptor (aa 524-795) with point mutations; expressed in transfected cells; host or cells: S. cerevisiae FY250
T10 sequence (P06536 524-795 F620S/C656G limits assumed): T1 sequence (P06536 524-795 F620S/C656G limits assumed)
T10 sequence (P00375 1-187): T3 sequence (P00375 1-187)
From the text: as §1, §2

## C[C@@H]1C[C@H]2C3CCC4=CC(=O)C=C[C@]4(C)[C@@]3(F)[C@@H](O)C[C@]2(C)[C@@]1(O)C(=O)NCCSCCCCCCCCCCSCC[C@H](NC(=O)c1ccc(N(C)Cc2cnc3nc(N)nc(N)c3n2)cc1)C(=O)O (stereo partly shown) [D10M]
[1]
  B-gal activity: 2286 β-galactosidase units
[2]
  B-gal activity: 9398 β-galactosidase units
[3]
  B-gal activity: 5 β-galactosidase units
[4]
  B-gal activity: 2028 β-galactosidase units
[5]
  B-gal activity: 1132 β-galactosidase units
[6]
  B-gal activity: 2926 β-galactosidase units
[7]
  B-gal activity: −60 β-galactosidase units
[8]
  B-gal activity: 4013 β-galactosidase units
[9]
  B-gal activity: 740 β-galactosidase units
LexA rGR2 / B42 mDHFR
  B-gal activity: −14 β-galactosidase units
